From patent US20030114403A1, “Method for treatment of cancers and antineoplastic pharmaceutical formulations” (CANADA Inc., priority 2001, published 2003)

How the values were obtained:
[1] = tested on: Ehrlich ascites; assay: Ehrlich ascites in A2G mice, single intraperitoneal treatment; conditions: for toxic side effects: animals followed up to one month
Procedure: Normal A2G mice were transplanted 24 hours prior to treatment with 1,000,000 Ehrlich ascites cells. Treatment procedures consisted of a single intraperitoneal injection of malachite green 4/mg/kg or brilliant green 2 mg/kg, with or without 0.7% levorotatory lactic acid.
A lot of 50 A2G mice with a bodyweight of approximately 25 g each were infected with Ehrlich ascites 48 hours prior to treatment. Treatment consisted of one intraperitoneal injection of 1.0 cm^3 brilliant green 1:20,000 solution (2 mg per kilogram) or 1.0 cm^3 of malachite green 1:10,000 (4 mg per kilogram), with 0.7% levorotatory lactic acid.

[2] = tested on: Ehrlich ascites cells; assay: Transmission electron microscopy of Ehrlich ascites cells from intraperitoneal liquid after treatment; format: cell-based, A2G mice
[3] = single intraperitoneal injection, malachite green 4/mg/kg or brilliant green 2 mg/kg, with or without 0.7% levorotatory lactic acid

SMILES | toxic side effects [1, 3] | resolution of Ehrlich ascites [1, 3] | effect of blocking malignancies ([1]; with lactic acid as specific vector and metabolite, in vitro and in vivo) | inactivation of malignant cells (electron microscope study of intraperitoneal liquid samples) ([2]; one i.p. injection of brilliant green 1:20,000 (2 mg per kilogram) or malachite green 1:10,000 (4 mg per kilogram) with 0.7% levorotatory lactic acid, samples at different times) | lipid droplet synthesis (TEM) ([2]; twenty-four hours after the treatment) | morphology (TEM) of ascites cells in peritoneal fluid ([2]; two weeks post treatment)
CCN(CC)c1ccc(C(=C2C=CC(=[N+](CC)CC)C=C2)c2ccccc2)cc1 [brilliant green] | no obvious toxic side effects were observed |  |  |  |  | 
CN(C)c1ccc(C(=C2C=CC(=[N+](C)C)C=C2)c2ccccc2)cc1 [malachite green] | no obvious toxic side effects were observed | ability to resolve Ehrlich ascites | irreversible effect of blocking malignancies both in vitro and in vivo | complete inactivation of the malignant cells | slowed down | characteristic cytostatic morphology consistent with interruption of cell cycling
